Assays:
Experiment in all cases: cells
Set-up in all cases: species or system panel of human cancer cell lines; Eurofins OncoPanel proliferation; nuclei count by high-content fluorescence imaging, 10-point dose response
SNB-19 = conditions: Homo sapiens, SNB-19, 72 h, cell count, 3 days
Summary of the method: (§1)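 Ten half-log concentrations from 100 μM (0.1% DMSO max) applied one day post-seeding, 3-day exposure at 37°C; untreated time-zero plate for GI50. Readout is nuclear cell count by automated fluorescence imaging, giving EC50, IC50, GI50 and 0–10 activity area.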

CML-T1 = conditions: CML-T1, 72 h, cell count, 3 days
Summary of the method: as §1

HPAF-II = conditions: Homo sapiens, HPAF-II, 72 h, cell count, 3 days
Summary of the method: as §1

NALM-6 = conditions: Homo sapiens, NALM-6, 72 h, cell count, 3 days
Summary of the method: as §1

Y79 = conditions: Homo sapiens, Y79, 72 h, cell count, 3 days
Summary of the method: as §1

Hs 578T = conditions: Homo sapiens, Hs-578T, 72 h, cell count, 3 days
Summary of the method: as §1

JeKo-1 = conditions: Homo sapiens, JeKo-1, 72 h, cell count, 3 days
Summary of the method: as §1

Calu6 = conditions: Homo sapiens, Calu-6, 72 h, cell count, 3 days
Summary of the method: as §1

J-RT3-T3-5 = conditions: Homo sapiens, J-RT3-T3-5, 72 h, cell count, 3 days
Summary of the method: as §1

RD = conditions: Homo sapiens, RD, 72 h, cell count, 3 days
Summary of the method: as §1

TUR = conditions: 72 h, cell count, 3 days
Summary of the method: as §1

AGS = conditions: Homo sapiens, AGS, 72 h, cell count, 3 days
Summary of the method: as §1

Hs 229.T = conditions: 72 h, cell count, 3 days
Summary of the method: as §1

A498 = conditions: Homo sapiens, A498, 72 h, cell count, 3 days
Summary of the method: as §1

[1] = 50% of maximum possible response

`C[C@@H]1CC(=O)NN=C1c1ccc(NN=C(C#N)C#N)cc1` [levosimendan] was tested, and the IC50 (SNB-19; [1]) was greater than 100 µM, the GI50 (SNB-19; corrected for time zero) was greater than 100 µM and the EC50 (SNB-19; curve inflection point) was greater than 100 µM. The IC50 (CML-T1; [1]) was 15.7 µM, the GI50 (CML-T1; corrected for time zero) was 12.5 µM and the EC50 (CML-T1; curve inflection point) was 15.7 µM. It also gave an IC50 (HPAF-II; [1]) of 65.8 µM, a GI50 (HPAF-II; corrected for time zero) of 54 µM and an EC50 (HPAF-II; curve inflection point) of 65.8 µM. It also gave an IC50 (NALM-6; [1]) of 30.8 µM, a GI50 (NALM-6; corrected for time zero) of 23.4 µM and an EC50 (NALM-6; curve inflection point) of 30.8 µM. It also gave an IC50 (Y79; [1]) of 36.2 µM, a GI50 (Y79; corrected for time zero) of 16 µM and an EC50 (Y79; curve inflection point) of 32.8 µM. For the same molecule, the IC50 (Hs 578T; [1]) was greater than 100 µM, the GI50 (Hs 578T; corrected for time zero) was greater than 100 µM and the EC50 (Hs 578T; curve inflection point) was 48 µM. For the same molecule, the IC50 (JeKo-1; [1]) was 24.7 µM, the GI50 (JeKo-1; corrected for time zero) was 20.9 µM and the EC50 (JeKo-1; curve inflection point) was 24.6 µM. It also gave an IC50 (Calu6; [1]) greater than 100 µM, a GI50 (Calu6; corrected for time zero) of 91.5 µM and an EC50 (Calu6; curve inflection point) greater than 100 µM. The IC50 (J-RT3-T3-5; [1]) was 24.4 µM, the GI50 (J-RT3-T3-5; corrected for time zero) was 18.4 µM and the EC50 (J-RT3-T3-5; curve inflection point) was 24.4 µM. It also gave an IC50 (RD; [1]) of 20.6 µM, a GI50 (RD; corrected for time zero) of 15.7 µM and an EC50 (RD; curve inflection point) of 20.6 µM. It also gave an IC50 (TUR; [1]) of 6.72 µM, a GI50 (TUR; corrected for time zero) of 5.98 µM and an EC50 (TUR; curve inflection point) of 6.49 µM. For the same molecule, the IC50 (AGS; [1]) was 4.21 µM, the GI50 (AGS; corrected for time zero) was 3.91 µM and the EC50 (AGS; curve inflection point) was 3.93 µM. The IC50 (Hs 229.T; [1]) was 100 µM, the GI50 (Hs 229.T; corrected for time zero) was 60.3 µM and the EC50 (Hs 229.T; curve inflection point) was 100 µM. For the same molecule, the IC50 (A498; [1]) was 81.2 µM, the GI50 (A498; corrected for time zero) was 60.8 µM and the EC50 (A498; curve inflection point) was 81.2 µM.

From publication PMC6576746, “Rational discovery of dual-indication multi-target PDE/Kinase inhibitor for precision anti-cancer therapy using structural systems pharmacology” (PLoS Computational Biology, 2019)
